Patent publication US20220395487A1, “RIG-I INNATE IMMUNE RECEPTOR ANTAGONISTS AND METHODS OF USING SAME” (YALE UNIVERSITY, priority 2019, published 2022)

What was measured:
[1] = target: T1, RIG-I (Homo sapiens, UniProt O95786); experiment: ADP-Glo ATPase assay; assay type: biochemical; set-up: The native, full-length protein was expressed and purified using methods adapted from published protocols; SUMO (pET-SUMO vector; captured on Ni-NTA) (N, cleaved yes); made in house; host or cells: Rosetta II(DE3) Escherichia coli; settings: Poly I:C RNA activation, read-out: apparent IC50, RIG-I ATPase inhibition
T1 sequence (O95786 1-925): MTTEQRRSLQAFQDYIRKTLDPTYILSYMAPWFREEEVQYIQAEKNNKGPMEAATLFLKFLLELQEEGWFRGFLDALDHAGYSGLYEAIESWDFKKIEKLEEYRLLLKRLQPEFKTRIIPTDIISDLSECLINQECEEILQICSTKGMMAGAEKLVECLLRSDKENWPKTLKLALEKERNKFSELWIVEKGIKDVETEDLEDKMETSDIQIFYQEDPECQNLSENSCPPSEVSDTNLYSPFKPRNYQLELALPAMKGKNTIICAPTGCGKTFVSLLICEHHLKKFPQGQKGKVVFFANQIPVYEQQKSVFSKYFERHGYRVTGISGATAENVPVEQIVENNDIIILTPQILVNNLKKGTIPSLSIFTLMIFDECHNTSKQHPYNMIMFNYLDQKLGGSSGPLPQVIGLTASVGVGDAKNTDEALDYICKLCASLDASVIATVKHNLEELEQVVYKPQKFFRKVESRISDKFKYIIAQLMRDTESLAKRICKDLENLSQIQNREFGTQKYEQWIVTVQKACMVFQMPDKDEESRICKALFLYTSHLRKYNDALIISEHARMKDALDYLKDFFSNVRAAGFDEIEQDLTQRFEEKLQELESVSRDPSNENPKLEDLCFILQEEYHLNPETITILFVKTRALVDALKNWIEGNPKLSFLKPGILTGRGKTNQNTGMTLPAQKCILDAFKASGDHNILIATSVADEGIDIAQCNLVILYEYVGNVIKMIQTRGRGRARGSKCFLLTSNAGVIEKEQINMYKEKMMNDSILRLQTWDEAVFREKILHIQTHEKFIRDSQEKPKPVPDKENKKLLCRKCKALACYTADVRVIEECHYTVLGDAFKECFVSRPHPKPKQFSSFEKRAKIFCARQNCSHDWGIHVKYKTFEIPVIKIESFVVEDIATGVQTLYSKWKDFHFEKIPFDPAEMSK
Experimental: For the ADP-Glo assay system (V9101, Promega), RIG-I protein was diluted to 10 nM in assay buffer (25 mM MOPS pH 7.4, 150 mM NaCl, 2 mM DTT, and 2 mM Mg^2). For HTS experiments, Poly I:C RNA was used for RIG-I activation, and added to a final concentration of 0.4 μg/ml. To initiate the ATPase reactions, ATP was added to a final concentration of 200 μM. To test compounds, a 12-point serial dilution of the small molecule of interest was combined with DMSO, keeping the DMSO levels at a constant 1% throughout the entire drug dilution. Final drug concentrations ranged from 0 to 200 μM. The final volume for reaction was 20 μL per well, measured in a Corning 384-well plate (Plate ID: 3658). Reactions were allowed to proceed at room temperature for one hour, after which 2.5 μL of the ADP-Glo Reagent was added to each well. Samples were incubated at 25° C. for 45 min to terminate the ATPase reaction and deplete the remaining ATP. Next, 5 μL of Kinase Detection Reagent was added to each well in order to convert the ADP product back to ATP, which is then used as a substrate for the luminescent reporter, which was read on a Biotek Synergy HI Plate Reader.
Slopes from the twelve point curves were fit to a non-competitive, four variable inhibition curve in order to obtain IC50 values:
where X is Log10 [compound], Y is luminescence, Top and Bottom are the plateaus at Ymin and Ymax. […]

[2] = target: T1, RIG-I; experiment: NADH-coupled ATPase assay; assay type: biochemical; set-up: The native, full-length protein was expressed and purified using methods adapted from published protocols; SUMO (pET-SUMO vector; captured on Ni-NTA) (N, cleaved yes); made in house; host or cells: Rosetta II(DE3) Escherichia coli; settings: for IC50: NADH-coupled ATPase assay; for RIG-I ATPase inhibition, result in words: SAR discussion of Table 1 compounds
Experimental: In this case, RIG-I was activated by a well-defined synthetic RNA hairpin duplex (SLR10-OH), which was added to a final concentration of 250 nM. A coupled assay mixture consisting of 1 mM NADH, 100 U/ml lactic dehydrogenase, 500 U/ml pyruvate kinase, 2.5 mM phosphoenol pyruvic acid was added to the sample. A 12-point serial dilution of the compound of interest was added in a DMSO vehicle such that DMSO concentrations were kept at a constant 2% over the entire drug dilution. The final concentration ranges for drug dilutions varied from compound to compound based on the potency of the small molecule in question. The dilutions covered ranges from 0 to as high as 100 μM (see association figures). Samples were incubated for at least 1 hour at RT. Reactions were initiated by the addition of a 1:1 ATP/MgCl2 mix to a final concentration of 5 mM.
The rate of ATP hydrolysis was determined indirectly by monitoring the conversion of NADH to NAD^+ that results in a loss of sample absorbance at 340 nm. Absorbance was measured over a 20 min time course using a sweeping read at 10 second intervals and a gain setting of 120 on a Biotek Synergy H1 Plate Reader. Mean kobs values were extrapolated for each time course and plotted against drug concentration, then fit to Eq. (1) to determine IC50 values. Each point was a based on two trials of three biological replicates with error bars representing the Standard deviation.

[3] = target: T1, RIG-I; experiment: IFN-β/Firefly dual-luciferase reporter assay in HEK 293T cells transfected with hRIG-I; assay type: cell-based; settings: HEK293T cells, SLR14 challenge
Experimental: Two different assays were used for evaluating RIG-I inhibition in cells. In the first assay, HEK 293T cells were used to test the influence of compounds on RIG-I signaling activity while simultaneously reporting on relative toxicity. In this case, inhibitor compounds were introduced via growth media replacement rather than by direct addition to cell plates. Specifically, HEK 293T cells (which express RIG-I only under the control of a transfected plasmid) were grown and maintained in T75 flasks containing Dulbecco's Modified Eagle Medium, DMEM (Life Technologies) supplemented with 10% heat-inactivated fetal bovine serum (Hyclone) and non-essential amino acids (Life Technologies). For the IFN-β induction assays, 0.5 ml of cells at 65,000 cells/ml was placed (seeded) in 24-well plates. After 24 h, each well of cells was transfected with 5 ng WT pUNO-hRIG-I (Invivogen), 6 ng pRL-TK constitutive Renilla luciferase reporter plasmid (Promega) and 150 ng of an IFN-β/Firefly luciferase reporter plasmid using the Lipofectamine 2000 transfection reagent (Life Technologies) following the manufacturer's protocol. Protein expression was allowed to proceed for 24 hours. In parallel, a six-point dilution series of each compound of interest was made in a DMSO vehicle and then diluted further into DMEM such that a constant DMSO concentration of 1% is maintained over the entire drug dilution. The DMEM growth media was aspirated from each well of cells and replaced with DMEM that contains the drug. After 30 minutes, the cells were challenged by transfection with 1 μg of the synthetic stem-loop RNA (SLR14) in Lipofectamine 2000. After 5-6 hours, cells were harvested for luminescence analysis in the following manner: Growth media was aspirated from each well, and 100 μl of passive lysis buffer (Promega) was added. Lysis proceeded for 15 min at room temperature. Lysates were clarified by centrifugation, and 20 μl samples of the supernatant were transferred to a 96-well assay plate for analysis using the Dual-Luciferase Reporter Assay System (Promega). Luminescence was measured using a Biotek Synergy H1 plate reader. The resulting Firefly luciferase activity (i.e. the induction of IFN-0) was normalized to the activity of the constitutively expressed Renilla luciferase to account for differences in confluency, transfection efficiency and cell viability across sample wells.

[4] = SLR10-OH activated, mean ± standard deviation, 3 measurements, read-out: IC50

SMILES | IC50 [2, 4] | further results
CC1(C)C(=O)N=C2C1=C(O)C(=O)c1ccccc12 [RIG001, 4-Hydroxy-3,3-dimethyl-2H1,3H,5H1-benzo[g]indole-2,5-dione] | – | IC50 [1]: 19000 ± 3000 nM; IC50 ([2]; read-out: IC50 value in the coupled assay system): 12000 ± 1000 nM
COC1=C2C(=NC(=O)C2(C)C)c2ccccc2C1=O [RIG002, 4-Methoxy-3,3-dimethyl-2H,3H,5H-benzo[g]indole-2,5-dione] | 6300 ± 600 nM | –
COc1c2c(c3ccccc3c1OC)N(C)C(=O)C2(C)C [RIG003, 4,5-Dimethoxy-1,3,3-trimethyl-1H,2H,3H-benzo[g]indol-2-one] | – | inhibition of RIG-I signaling / IFN induction, result in words [3]: did not influence levels of IFN induction or RIG-I response
COc1c2c(c3ccccc3c1OC)NC(=O)C2(C)C [RIG004, 4,5-Dimethoxy-3,3-dimethyl-1H,2H,3H-benzo[g]indol-2-one] | – | RIG-I ATPase inhibition, result in words [2]: loss of function
CC1(C)C(=O)N=C2C1=C(OCc1ccccc1)C(=O)c1ccccc12 [RIG005, 4-Benzyloxy-3,3-dimethyl-2H,3H,5H-benzo[g]indole-2,5-dione] | 2600 ± 200 nM | –
CC(C)COC1=C2C(=NC(=O)C2(C)C)c2ccccc2C1=O [RIG006, 4-(2,2-Dimethylethoxy)-3,3-dimethyl-2H,3H,5H-benzo[g]indole-2,5-dione] | 2100 ± 200 nM | –
CCOC1=C2C(=NC(=O)C2(C)C)c2ccccc2C1=O [RIG007, 4-Ethoxy-3,3-dimethyl-2H,3H,5H-benzo[g]indole-2,5-dione] | 1800 ± 100 nM | –

Further lines, with some results ahead:

IC50 [2, 4] | SMILES | further results
1800 ± 300 nM | CC1(C)C(=O)N=C2C1=C(OCc1nc3ccccc3[nH]1)C(=O)c1ccccc12 [RIG008, 4-(1H-1,3-Benzodiazol-2-ylmethoxy)-3,3-dimethyl-2H,3H,5H-benzo[g]indole-2,5-dione] | –
2400 ± 300 nM | O=C1C(O)=C2C(=NC(=O)C23CCCCC3)c2ccccc21 [RIG009, 4-Hydroxy-2,5-dihydrospiro[benzo[g]indole-3,1′-cyclohexane]-2,5-dione] | –
4700 ± 300 nM | O=C1C(OCc2ccccc2)=C2C(=NC(=O)C23CCCCC3)c2ccccc21 [RIG010, 4-(Benzyloxy)-2,5-dihydrospiro[benzo[g]indole-3,1′-cyclohexane]-2,5-dione] | –
890 ± 40 nM | CCC1(CC)C(=O)N=C2C1=C(O)C(=O)c1ccccc12 [RIG011, 3,3-Diethyl-4-hydroxy-2H,3H,5H-benzo[g]indole-2,5-dione] | RIG-I ATPase inhibition, result in words [2]: nanomolar IC50 values
2100 ± 200 nM | CC1(C)C(=O)N=C2C1=C(OCc1ccc3ccccc3c1)C(=O)c1ccccc12 [RIG013, 3,3-Dimethyl-4-(naphthalen-2-ylmethoxy)-2H,3H,5H-benzo[g]indole-2,5-dione] | IC50 ([3]; compound in growth medium, read-out: IC50, inhibition of RIG-I signaling (IFN induction luciferase)): 1360 nM
